According to patent US11166460B2, “α-amino acrylate microbicide, and preparation method therefor and uses thereof” (priority 2017, dated 2021):
In brackets after ≈: the same amount, converted by molar mass. Like-named read-outs stand apart in the source and are kept apart here.

Tests used:
Alternaria solani = experiment: Fungicidal activity, fungi growth rate method, AS; format: cell-based; details: Alternaria solani, 50 μg/mL
[1] = test system: Phytophthora infestans (Mont) de Bary; experiment: microbe, parasite or virus in culture; format: cell-based; details: Phytophthora infestans
Pellicularia sasakii = experiment: Fungicidal activity, fungi growth rate method, PS; format: cell-based; details: 50 μg/mL
Physalospora piricola = experiment: Fungicidal activity, fungi growth rate method, PP; format: cell-based; details: 50 μg/mL
[2] = test system: tobacco mosaic virus (TMV); experiment: Anti-TMV protective activity (protection mode), live friction inoculation on tobacco seedlings; format: in vivo; details: Tobacco mosaic virus, read-out: Anti-TMV activity, Protection effect (inhibition)
[3] = test system: tobacco mosaic virus (TMV); experiment: Anti-TMV curative activity (treatment mode), live friction inoculation on tobacco seedlings; format: in vivo; details: Tobacco mosaic virus, read-out: Anti-TMV activity, Curative effect (inhibition), 100 μg/mL, tobacco seedlings, checked on seventh day
Rhizoctonia cerealis = experiment: Fungicidal activity, fungi growth rate method, RC; format: cell-based; details: Ceratobasidium cereale, 50 μg/mL
Cercospora arachidicola = experiment: Fungicidal activity, fungi growth rate method, CA; format: cell-based; details: Mycosphaerella arachidis, 50 μg/mL
Sclerotinia sclerotiorum = experiment: microbe, parasite or virus in culture; format: cell-based; details: Sclerotinia sclerotiorum; for inhibition at 50 µg/mL: 50 μg/mL
wheat Gibberella zeae = experiment: microbe, parasite or virus in culture; format: cell-based; details: Fusarium graminearum
[4] = test system: tobacco mosaic virus (TMV); experiment: Anti-TMV inducing activity (induction mode), tobacco seedlings; format: in vivo; details: Tobacco mosaic virus, read-out: Anti-TMV activity, Induction effect (inhibition), 100 μg/mL, tobacco seedlings
[5] = test system: tobacco mosaic virus (TMV); experiment: Anti-TMV inactivation activity (inactivation mode), compound mixed with TMV before inoculation of tobacco leaves; format: in vivo; details: Tobacco mosaic virus, read-out: Anti-TMV activity, Inactivation effect (inhibition)
Botrytis cinerea = experiment: Fungicidal activity, fungi growth rate method, BC; format: cell-based; details: Botrytis cinerea, 50 μg/mL
[6] = read-out: Fungicidal activity, inhibition, AS
[7] = read-out: Fungicidal activity, inhibition, PI
[8] = read-out: Fungicidal activity, inhibition, PS
[9] = read-out: Fungicidal activity, inhibition, PP
[10] = read-out: Fungicidal activity, inhibition, RC
[11] = read-out: Fungicidal activity, inhibition, CA
[12] = read-out: Fungicidal activity, inhibition, SS
[13] = read-out: Fungicidal activity, inhibition, GZ
[14] = read-out: Fungicidal activity, inhibition, BC
[15] = read-out: Fungicidal activity (inhibition) against SS: Sclerotinia sclerotiorum

SMILES	inhibition at 50 µg/mL (Alternaria solani; [6]) [%]	inhibition at 50 µg/mL [1, 7] [%]	inhibition at 50 µg/mL (Pellicularia sasakii; [8]) [%]	melting point [°C]	inhibition at 50 µg/mL (Physalospora piricola; [9]) [%]	inhibition at 100 µg/mL [2] [%]	inhibition at 100 µg/mL [3] [%]	inhibition at 50 µg/mL (Rhizoctonia cerealis; [10]) [%]	inhibition at 50 µg/mL (Cercospora arachidicola; [11]) [%]	inhibition at 50 µg/mL (Sclerotinia sclerotiorum; [12]) [%]	inhibition at 50 µg/mL (wheat Gibberella zeae; [13]) [%]	inhibition at 100 µg/mL [4] [%]	inhibition at 100 µg/mL [5] [%]	inhibition at 50 µg/mL (Botrytis cinerea; [14]) [%]	inhibition at 50 µg/mL (Sclerotinia sclerotiorum; [15]) [%]	further results
O=C(NC(Cc1ccccc1)C(=O)N1CCC(O)(c2ccc(Br)cc2)CC1)C1CCCCC1 (stereo not drawn) [Compound 50, N-[1-[[4-(4-bromophenyl)-4-hydroxy-1-piperidinyl]carbonyl]-2-phenylethyl]cyclohexanecarboxamide]	29	26	20	200 to 202	18	47	37	23	26	50	29	34	34	29		
O=C(NCc1cccc(Br)c1)/C(=C/c1ccccc1)NC(=O)c1ccccc1 [Compound 51, N-[(1Z)-2-phenyl-1-[[(3-bromophenylmethyl)amino]carbonyl]ethenyl]benzamide]	25	21	14	180 to 182	18	11	12	28	15	50	43	14	69	24		
O=C(NCc1ccccc1Br)/C(=C/c1ccccc1)NC(=O)c1ccccc1 [Compound 52, N-[(1Z)-2-phenyl-1-[[(2-bromophenylmethyl)amino]carbonyl]ethenyl]benzamide]	11	16	14	178 to 180	6	20	12	18	11	38	29	47	31	18		
O=C(NCc1ccccc1)/C(=C/c1ccccc1)NC(=O)c1ccccc1 [Compound 53, N-[(1Z)-2-phenyl-1-[[(phenylmethyl)amino]carbonyl]ethenyl]benzamide]	16	5	8	169 to 171	13	33	55	5	18	75	23	0	58	16	75	inhibition at 50 µg/mL (Alternaria solani; read-out: Fungicidal activity (inhibition) against AS: Alternaria solani): < 30%; inhibition at 50 µg/mL ([1]; read-out: Fungicidal activity (inhibition) against PI: Phytophthora infestans (Mont) de Bary): < 25%; inhibition at 50 µg/mL (Pellicularia sasakii; read-out: Fungicidal activity (inhibition) against PS: Pellicularia sasakii): < 30%; inhibition at 50 µg/mL (Physalospora piricola; read-out: Fungicidal activity (inhibition) against PP: Physalospora piricola): < 20%; inhibition at 50 µg/mL (Rhizoctonia cerealis; read-out: Fungicidal activity (inhibition) against RC: Rhizoctonia cerealis): < 20%; inhibition at 50 µg/mL (Cercospora arachidicola; read-out: Fungicidal activity (inhibition) against CA: Cercospora arachidicola): < 25%; inhibition at 50 µg/mL (wheat Gibberella zeae; read-out: Fungicidal activity (inhibition) against GZ: wheat Gibberella zeae): < 45%; inhibition at 50 µg/mL (Botrytis cinerea; read-out: Fungicidal activity (inhibition) against BC: Botrytis cinerea): ≤ 20%
COc1ccc(CNC(=O)/C(=C/c2ccccc2)NC(=O)c2ccccc2)cc1 [Compound 54, N-[(1Z)-2-phenyl-1-[[(4-methoxyphenylmethyl)amino]carbonyl]ethenyl]benzamide]	16	2	17	138 to 140	13	0	49	17	16	75	42	0	28	12	60 to 80	
O=C(NCc1ccc(F)cc1)/C(=C/c1ccccc1)NC(=O)c1ccccc1 [Compound 55, N-[(1Z)-2-phenyl-1-[[(4-fluorophenylmethyl)amino]carbonyl]ethenyl]benzamide]	28	19	12	199 to 201	21	0	45	12	10	75	34	4	59	12	60 to 80	
O=C(NCc1ccc(Cl)cc1)/C(=C/c1ccccc1)NC(=O)c1ccccc1 [Compound 56, N-[(1Z)-2-phenyl-1-[[(4-chlorophenylmethyl)amino]carbonyl]ethenyl]benzamide]	24	5	12	202 to 204	4	0	30	17	14	100	19	4	58	22	100	EC90 (Sclerotinia sclerotiorum; read-out: EC90 against S. sclerotiorum in vitro): 1260 µg/mL (≈ 3.21 mM)
O=C(NCc1ccc(C(F)(F)F)cc1)/C(=C/c1ccccc1)NC(=O)c1ccccc1 [Compound 57, N-[(1Z)-2-phenyl-1-[[(4-trifluoromethylphenylmethyl)amino]carbonyl]ethenyl]benzamide]	16	0	19	167 to 168	0	4	52	10	4	50	31	0	61	10		
O=C(NCc1cccs1)/C(=C/c1ccccc1)NC(=O)c1ccccc1 [Compound 58, N-[(1Z)-2-phenyl-1-[[(2-thienylmethyl)amino]carbonyl]ethenyl]benzamide]	21	21	14	210 to 212	9	0	17	18	6	47	29	2	0	18		
O=C(NCc1ccc(Br)cc1)/C(=C/c1ccccc1)NC(=O)C1CC1 [Compound 59, N-[(1Z)-2-phenyl-1-[[(4-bromophenylmethyl)amino]carbonyl]ethenyl]cyclopropanecarboxamide]	16	10	19	187 to 189	8	41	80	24	22	75	16	26	39	18	60 to 80	
O=C(NCc1ccc(Br)cc1)/C(=C/c1ccccc1)NC(=O)C1CCCCC1 [Compound 60, N-[(1Z)-2-phenyl-1-[[(4-bromophenylmethyl)amino]carbonyl]ethenyl]cyclohexanecarboxamide]	21	16	9	215 to 216	12	28	16	23	18	38	57	18	53	18		
